Laboratory results reported in patent US20120016010A1, “RNA Interference Mediated Inhibition of BTB and CNC Homology 1, Basic Leucine Zipper Transcription Factor 1 (BACH1) Gene Expression Using Short Interfering Nucleic Acid (siNA)” (Merck Sharp & Dohme Corp, priority 2009, published 2012).
[invAb] = inverted abasic unit; d = 2'-deoxy (DNA); m = 2'-O-methyl; r = 2'-OH (RNA); f = 2'-fluoro

How the values were obtained:
Bach1 mRNA [1] = experiment: Initial screen: Bach1 mRNA knock-down in human A549 cells (96-well transfection, quantitative RT-PCR); assay type: cell-based; conditions: Bach1 mRNA, 10 nM siNA, human A549 cells, n = 2, mean ± S.D., normalized to GAPDH and non-targeting control, 24 hrs post-transfection
Protocol: (§1) All cells were obtained from ATCC (Manassas, Va.) unless otherwise indicated. Cells were grown and transfected under standard conditions, which are detailed below for each cell line.
(§2) Cells were plated in all wells of a tissue-culture treated, 96-well plate at a final count of 5000 cells/well in 100 μL of the appropriate culture media. The cells were cultured for 24 hours after plating at 37° C. in the presence of 5% CO2.
(§3) After 24 hours, complexes containing siNA and RNAiMax were created as follows: A solution of RNAiMax diluted 33-fold in OPTI-MEM was prepared. […] After incubation of RNAiMax/OPTI-MEM solution at room temperature for 5 min, an equal volume of the siNA solution and the RNAiMax solution were added together for each of the siNAs.
(§4) This solution was incubated at room temperature for 20 minutes. After incubation, 20 uL of the solution was added to each of the relevant wells. The final concentration of siNA in each well was 10 nM and the final volume of RNAiMax in each well was 0.3 ul. […]
(§5) Briefly, a 60 uL (1 plate) or 110 uL (2 plates) of the Lysis Solution with DNase I was dispensed into each well of the Lysis Buffer Plate (twin.tec full skirt plate). The lysis buffer and stop plates were stored at 4° C. until the cells were washed.
(§6) The plate was spun at 1100 rpm for 5 minutes. The culture medium was aspirated and discarded from the wells of the culture plate. The lysis was performed automatically using a BioMek FX instrument and method. After the Biomek method was completed, the lysis plate was incubated for 2 min at room temperature. The lysis plate can be stored for 2 hours at 4° C., or at −20° C. or −80° C. for two months.
(§7) Each well of the reverse transcription plate required 10 uL of 2× reverse transcriptase Buffer, 1 uL of 20× reverse transcription enzyme and 2 uL of nuclease-free water. The reverse transcription master mix was prepared by mixing 2× reverse transcription buffer, 20× reverse transcription enzyme mix, and nuclease-free water. 13 uL of the reverse transcription master mix was dispensed into each well of the reverse transcription plate (semi-skirted). A separate reverse transcription plate was prepared for each cell plate. The plate was loaded onto a Biomek NX or Biomek FX Dual −96 and the Biomek method was run. The program is programmed to automatically added 7 uL of lysate from the cell lysis procedure described above into each well of the reverse transcription plate. The plate is sealed and spun on a centrifuge (1000 rpm for 30 seconds) to settle the contents to the bottom of the reverse transcription plate. The plate is placed in a thermocycler at 37° C. for 60 min, 95° C. for 5 min, and 4° C. until the plate is removed from the thermocycler. Upon removal, if not used immediately, the plate was frozen at −20° C.
(§8) A series of probes and primers were used to detect the various mRNA transcripts of the genes of Bach1, HMOX-1, and GAPDH in mouse and human cell lines. The assays were performed on an ABI 7900 instrument, according to the manufacturer's instructions. […] The PCR reactions were carried out at 50° C. for 2 min, 95° C. for 20 min followed by 40 cycles at 95° C. for 15 secs and 60° C. for 1 min
(§9) Within each experiment, the […] was set in the exponential phase of the amplification curve, and based on the intersection point of the baselines with the amplification curve, a Ct value was assigned by the instrument.
(§10) The expression level of the gene of interest and % knock-down was calculated using Comparative Ct method:
(§11) ΔCt=ΔCt(Target siRNA)−ΔCt(NTC)
(§12) Relative expression level=2^−ΔΔCt
(§13) The non-targeting control siNA was, unless otherwise indicated, chosen as the value against which to calculate the % knock-down, because it is the most relevant control.

Bach1 mRNA [2] = experiment: Initial screen: Bach1 mRNA knock-down in mouse NIH 3T3 cells (96-well transfection, quantitative RT-PCR); assay type: cell-based; conditions: mouse NIH3T3 cells, n = 2, 24 hrs post-transfection, protocol 10 nM siNA
Protocol: as §1, §2, §3, §4, §5, §6, §7, §8, §9, §10, §11, §12, §13

Row | Substance | % KD (Bach1 mRNA [1]) | % KD (Bach1 mRNA [2])
1 | 29948-DC: Bach1 siNA duplex, target site 1285; sense B GcGAGAAGuGGcAGAAcAc TTB (SEQ 45); antisense GUGuucuGccACuuCuCGcUU (SEQ 46) (sense GCGAGAAGUGGCAGAACACTT; antisense GUGUUCUGCCACUUCUCGCUU; sense: DNA at AGT, 2'-fluoro at CU, [invAb] at 5' end, 3' end, backbone not given here; antisense: sugars from the 5' end rrrffffmffmmffmfmmfmm, backbone not given here) | 51.9 ± 3^ % | −16.3 ± 12.6%
2 | 29949-DC: Bach1 siNA duplex, target site 664; sense B GuGuAAAcuccGcAGGuAu TTB (SEQ 47); antisense AUAccuGcGGAGuuuAcAcUU (SEQ 48) (sense GUGUAAACUCCGCAGGUAUTT; antisense AUACCUGCGGAGUUUACACUU; sense: DNA at AGT, 2'-fluoro at CU, [invAb] at 5' end, 3' end, backbone not given here; antisense: sugars from the 5' end rrrfffmfmmmmfffmfmfmm, backbone not given here) | 25 ± 1.4% | −7.1 ± 5.2%
3 | 29950-DC: Bach1 siNA duplex, target site 470; sense B GAGGAAuccuGcuuucAGu TTB (SEQ 49); antisense ACUGAAAGcAGGAuuccucUU (SEQ 50) (sense GAGGAAUCCUGCUUUCAGUTT; antisense ACUGAAAGCAGGAUUCCUCUU; sense: DNA at AGT, 2'-fluoro at CU, [invAb] at 5' end, 3' end, backbone not given here; antisense: sugars from the 5' end rrrmmmmmfmmmmffffffmm, backbone not given here) | 90.6 ± 1.7% | 42.5 ± 6.4%
4 | 29951-DC: Bach1 siNA duplex, target site 1162; sense B GccuuuGucAGGuAcAGAc TTB (SEQ 51); antisense GUCuGuAccuGAcAAAGGcUU (SEQ 52) (sense GCCUUUGUCAGGUACAGACTT; antisense GUCUGUACCUGACAAAGGCUU; sense: DNA at AGT, 2'-fluoro at CU, [invAb] at 5' end, 3' end, backbone not given here; antisense: sugars from the 5' end rrrfmfmfffmmfmmmmmfmm, backbone not given here) | 39 ± 11.2% | −22 ± 13.2%
5 | 29952-DC: Bach1 siNA duplex, target site 732; sense B cAuAuGAGuccAuGuGcuu TTB (SEQ 53); antisense AAGcAcAuGGAcucAuAuGUU (SEQ 54) (sense CAUAUGAGUCCAUGUGCUUTT; antisense AAGCACAUGGACUCAUAUGUU; sense: DNA at AGT, 2'-fluoro at CU, [invAb] at 5' end, 3' end, backbone not given here; antisense: sugars from the 5' end rrrfmfmfmmmfffmfmfmmm, backbone not given here) | 75 ± 0.9% | −15.7 ± 1.8%
6 | 29953-DC: Bach1 siNA duplex, target site 1096; sense B cAcAuAuGAccAAuAuGGu TTB (SEQ 55); antisense ACCAuAuuGGucAuAuGuGUU (SEQ 56) (sense CACAUAUGACCAAUAUGGUTT; antisense ACCAUAUUGGUCAUAUGUGUU; sense: DNA at AGT, 2'-fluoro at CU, [invAb] at 5' end, 3' end, backbone not given here; antisense: sugars from the 5' end rrrmfmffmmffmfmfmfmmm, backbone not given here) | 24 ± 14.1% | −11 ± 3.3%
7 | 29954-DC: Bach1 siNA duplex, target site 1389; sense B cAGAAcAGAucucAcAGAA TTB (SEQ 57); antisense UCCuGuGAGAucuGuucuGUU (SEQ 58) (sense CAGAACAGAUCUCACAGAATT; antisense UCCUGUGAGAUCUGUUCUGUU; sense: DNA at AGT, 2'-fluoro at CU, [invAb] at 5' end, 3' end, backbone not given here; antisense: sugars from the 5' end rrrfmfmmmmfffmffffmmm, backbone not given here) | 63.4 ± 0.9% | −10.2 ± 10.1%
8 | 29955-DC: Bach1 siNA duplex, target site 737; sense B GAGuccAuGuGcuuAGAGA TTB (SEQ 59); antisense UCUcuAAGcAcAuGGAcucUU (SEQ 60) (sense GAGUCCAUGUGCUUAGAGATT; antisense UCUCUAAGCACAUGGACUCUU; sense: sugars from the 5' end rrrfffdfdfdfffddddddd, [invAb] at 5' end, 3' end, backbone not given here; antisense: sugars from the 5' end rrrffmmmfmfmfmmmfffmm, backbone not given here) | 14.6 ± 0.2% | −12.2 ± 4.3%
9 | 29958-DC: Bach1 siNA duplex, target site 851; sense B GucAAAGAcAuucAuGcuu TTB (SEQ 65); antisense AAGcAuGAAuGucuuuGAcUU (SEQ 66) (sense GUCAAAGACAUUCAUGCUUTT; antisense AAGCAUGAAUGUCUUUGACUU; sense: DNA at AGT, 2'-fluoro at CU, [invAb] at 5' end, 3' end, backbone not given here; antisense: sugars from the 5' end rrrfmfmmmfmfffffmmfmm, backbone not given here) | 75.7 ± 8.6% | −50.4 ± 6.8%
10 | 29959-DC: Bach1 siNA duplex, target site 1415; sense B GAGuGuccGuGGuuAGGuA TTB (SEQ 67); antisense UACcuAAccAcGGAcAcuCUU (SEQ 68) (sense GAGUGUCCGUGGUUAGGUATT; antisense UACCUAACCACGGACACUCUU; sense: DNA at AGT, 2'-fluoro at CU, [invAb] at 5' end, 3' end, backbone not given here; antisense: chemistry not given here; in key) | 68 ± 14.9% | −9.9 ± 3.8%
11 | 29960-DC: Bach1 siNA duplex, target site 1377; sense B ccAAAGAuGGcucAGAAcA TTB (SEQ 69); antisense UGUucuGAGccAucuuuGGUU (SEQ 70) (sense CCAAAGAUGGCUCAGAACATT; antisense UGUUCUGAGCCAUCUUUGGUU; sense: DNA at AGT, 2'-fluoro at CU, [invAb] at 5' end, 3' end, backbone not given here; antisense: sugars from the 5' end rrrfffmmmffmfffffmmmm, backbone not given here) | 34 ± 3% | 5.9 ± 6.4%
